Experiments:
[1] = target: T1, ZfBGD2 (Zygaena filipendulae, UniProt A0A1W1EGN8); format: cell-based
T1 construct: expressed with and without (*) predicted native N-terminal signal peptide; retained in cells

[2] = target: T2, ZfGBA1 (Zygaena filipendulae, UniProt A0A1W1EGM7); format: cell-based
T2 construct: expressed with and without (*) predicted native N-terminal signal peptide; retained in cells
T2 sequence (A0A1W1EGM7 entry or part of it): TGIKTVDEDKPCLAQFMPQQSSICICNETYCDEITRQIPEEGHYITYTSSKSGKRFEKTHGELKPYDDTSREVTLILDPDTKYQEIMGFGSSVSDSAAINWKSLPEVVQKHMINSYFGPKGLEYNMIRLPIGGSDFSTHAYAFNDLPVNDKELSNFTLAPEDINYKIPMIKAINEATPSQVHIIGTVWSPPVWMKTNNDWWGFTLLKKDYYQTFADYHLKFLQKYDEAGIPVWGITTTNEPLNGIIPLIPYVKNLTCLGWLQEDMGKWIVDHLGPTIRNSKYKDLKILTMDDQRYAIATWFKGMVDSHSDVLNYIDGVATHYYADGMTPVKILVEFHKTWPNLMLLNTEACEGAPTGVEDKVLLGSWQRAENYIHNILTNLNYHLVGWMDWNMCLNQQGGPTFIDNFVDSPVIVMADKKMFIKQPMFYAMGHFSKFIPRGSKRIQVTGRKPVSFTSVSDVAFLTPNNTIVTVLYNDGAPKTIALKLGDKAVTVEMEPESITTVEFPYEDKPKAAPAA

T1 sequence (A0A1W1EGN8 19-524 limits assumed): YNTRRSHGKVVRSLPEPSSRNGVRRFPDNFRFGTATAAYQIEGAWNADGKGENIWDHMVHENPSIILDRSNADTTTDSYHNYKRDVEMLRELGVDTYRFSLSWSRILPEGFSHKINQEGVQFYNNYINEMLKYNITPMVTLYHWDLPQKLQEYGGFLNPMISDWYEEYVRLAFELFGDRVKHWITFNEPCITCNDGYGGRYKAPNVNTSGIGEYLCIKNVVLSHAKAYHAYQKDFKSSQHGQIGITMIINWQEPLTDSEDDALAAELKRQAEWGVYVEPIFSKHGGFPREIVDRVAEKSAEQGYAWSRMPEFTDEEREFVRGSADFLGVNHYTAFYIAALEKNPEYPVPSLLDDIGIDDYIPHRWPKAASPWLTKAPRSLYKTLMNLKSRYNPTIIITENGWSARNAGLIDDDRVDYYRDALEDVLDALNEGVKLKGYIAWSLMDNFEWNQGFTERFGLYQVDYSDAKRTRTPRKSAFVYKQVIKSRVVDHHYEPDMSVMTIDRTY

Row | Compound | HCN release from re-suspended Sf9 cells, Feigl-Anger paper and colorimetric [1] | HCN release from re-suspended Sf9 cells, Feigl-Anger paper and colorimetric [2]
1 | CC(C)(C#N)O[C@@H]1O[C@H](CO)[C@@H](O)[C@H](O)[C@H]1O [lin, linamarin] | ZfBGD2 and ZfGBA1 also hydrolysed linamarin and lotaustralin | ZfBGD2 and ZfGBA1 also hydrolysed linamarin and lotaustralin
2 | CC[C@](C)(C#N)O[C@@H]1O[C@H](CO)[C@@H](O)[C@H](O)[C@H]1O [lot, lotaustralin] | ZfBGD2 and ZfGBA1 also hydrolysed linamarin and lotaustralin | ZfBGD2 and ZfGBA1 also hydrolysed linamarin and lotaustralin
